In brackets after ≈: the same amount, converted by molar mass.
Legend:
[1] = biological target: T1, Dihydroorotate dehydrogenase (quinone), mitochondrial (Plasmodium falciparum (isolate 3D7), UniProt Q08210); assay: Inhibition of N-terminal His6-tagged recombinant Plasmodium falciparum DHODH (158 to 569 residues) N-terminally truncated soluble domain extracted from Escherichia coli phage resistant BL21-DE3 using CoQD/DHA/DCIP as substrates
T1 sequence (Q08210 whole entry): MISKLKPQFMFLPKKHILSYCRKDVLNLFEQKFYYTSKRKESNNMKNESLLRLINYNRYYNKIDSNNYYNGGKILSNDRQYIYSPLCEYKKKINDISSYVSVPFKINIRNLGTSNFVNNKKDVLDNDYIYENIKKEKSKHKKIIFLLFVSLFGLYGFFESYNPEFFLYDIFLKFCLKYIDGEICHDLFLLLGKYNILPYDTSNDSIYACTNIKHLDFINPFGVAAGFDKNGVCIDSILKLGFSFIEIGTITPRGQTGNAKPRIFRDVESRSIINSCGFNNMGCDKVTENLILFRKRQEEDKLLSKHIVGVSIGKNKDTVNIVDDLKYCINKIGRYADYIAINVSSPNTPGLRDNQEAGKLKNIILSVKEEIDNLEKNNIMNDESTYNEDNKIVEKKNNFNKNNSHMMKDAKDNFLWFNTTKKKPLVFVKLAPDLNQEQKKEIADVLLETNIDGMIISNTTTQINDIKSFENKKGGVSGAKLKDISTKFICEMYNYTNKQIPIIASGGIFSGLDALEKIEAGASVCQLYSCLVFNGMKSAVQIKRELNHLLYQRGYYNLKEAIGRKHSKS

[2] = biological target: Dihydroorotate dehydrogenase (quinone), mitochondrial (Homo sapiens, UniProt Q02127); assay: Inhibition of C-terminal His6-tagged recombinant human DHODH (29 to 395 residues) N-terminally truncated soluble domain extracted from Escherichia coli phage resistant BL21-DE3 using CoQD/DHA/DCIP as substrates
Dihydroorotate dehydrogenase (quinone), mitochondrial (Homo sapiens, UniProt Q02127), sequence (Q02127 whole entry, the tested form may be a part): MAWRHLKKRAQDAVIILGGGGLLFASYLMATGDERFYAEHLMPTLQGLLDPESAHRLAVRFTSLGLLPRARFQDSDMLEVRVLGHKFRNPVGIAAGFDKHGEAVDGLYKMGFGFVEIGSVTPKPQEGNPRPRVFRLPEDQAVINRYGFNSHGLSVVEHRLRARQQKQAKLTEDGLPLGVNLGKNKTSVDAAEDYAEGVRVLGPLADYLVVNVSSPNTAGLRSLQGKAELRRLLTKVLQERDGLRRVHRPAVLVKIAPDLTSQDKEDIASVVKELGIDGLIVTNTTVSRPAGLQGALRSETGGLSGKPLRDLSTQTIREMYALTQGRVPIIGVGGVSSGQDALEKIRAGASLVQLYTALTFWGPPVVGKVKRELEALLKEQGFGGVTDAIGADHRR

Plasmodium falciparum [3] = assay: Antiparasitic activity against asexual blood stage Plasmodium falciparum 3D7 incubated for 72 hrs by SYBR Green assay; assay type: functional, organism-based; conditions: 3D7, 72 h
[4] = Selectivity index, ratio of IC50 for N-terminal His6-tagged recombinant Plasmodium falciparum DHODH (158 to 569 residues) N-terminally truncated soluble domain extracted from Escherichia coli phage resistant BL21-DE3 to IC50 for C-terminal His6-tagged recombinant Plasmodium vivax DHODH (158 to …
[5] = Kinetic solubility of compound at pH 6.5 measured after 30 mins by nephelometry; assay type: physicochemical; conditions: buffer, pH 6.5, read-out: Kinetic_solubility
[6] = Metabolic stability in human liver microsomes assessed as intrinsic clearance at 0.5 uM incubated for 60 mins in presence of NADPH by tandem quadrupole-Time of Flight MS; assay type: ADME, Microsome; conditions: 1 h
[7] = Cytotoxicity against human HepG2 cells by Cell Titer Glo assay; assay type: toxicity, cell-based
[8] = Cytotoxicity against human Jurkat cells by Cell Titer Glo assay; assay type: toxicity, cell-based
Plasmodium falciparum [9] = assay: Antiparasitic activity against ring-stage Plasmodium falciparum D10 transformed with yeast DHODH incubated for 72 hrs by SYBR Green assay; assay type: functional, organism-based; conditions: D10, 72 h
[10] = Plasma protein binding in human measured for 6 hrs by rapid equilibrium dialysis; assay type: ADME, cell-free
[11] = Plasma protein binding in rat measured for 6 hrs by rapid equilibrium dialysis; assay type: ADME, cell-free
Albumin = Albumin (Homo sapiens, UniProt P02768); assay: Protein binding to albumin (unknown origin) in ALBUMAX medium; assay type: ADME; conditions: read-out: PB (converted)
Albumin, sequence (P02768 whole entry): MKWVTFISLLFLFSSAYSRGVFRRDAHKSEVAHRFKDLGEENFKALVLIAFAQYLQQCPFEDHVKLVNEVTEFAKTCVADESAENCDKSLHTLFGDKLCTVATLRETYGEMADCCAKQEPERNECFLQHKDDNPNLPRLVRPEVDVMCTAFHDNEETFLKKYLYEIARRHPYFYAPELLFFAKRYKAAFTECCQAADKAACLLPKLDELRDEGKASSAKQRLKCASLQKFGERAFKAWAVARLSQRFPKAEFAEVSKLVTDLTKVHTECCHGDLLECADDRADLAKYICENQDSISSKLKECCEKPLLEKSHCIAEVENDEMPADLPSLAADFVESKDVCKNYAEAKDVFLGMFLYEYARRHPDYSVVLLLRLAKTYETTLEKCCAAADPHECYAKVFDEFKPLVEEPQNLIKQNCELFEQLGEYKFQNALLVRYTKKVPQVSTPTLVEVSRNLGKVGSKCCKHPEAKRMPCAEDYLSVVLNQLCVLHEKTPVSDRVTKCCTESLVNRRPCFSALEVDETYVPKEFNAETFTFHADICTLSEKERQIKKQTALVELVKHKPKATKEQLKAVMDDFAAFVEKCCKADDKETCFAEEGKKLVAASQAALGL

[12] = Oral bioavailability in overnight-fasted male Sprague-Dawley rat at 3 mg/kg measured upto 72 hrs by LCMS analysis; assay type: ADME, organism-based; conditions: in vivo
[13] = Oral absorption in overnight-fasted male Sprague-Dawley rat at 3 mg/kg measured upto 72 hrs by LCMS analysis; assay type: ADME, organism-based; conditions: in vivo
[14] = Drug excretion in Sprague-Dawley rat urine at 1 mg/kg, iv; assay type: ADME, organism-based; conditions: read-out: Drug excretion
[15] = Half life in overnight-fasted male Sprague-Dawley rat at 3 mg/kg, po or 1 mg/kg, iv measured upto 72 hrs by LCMS analysis; assay type: ADME, organism-based; conditions: in vivo
Plasmodium falciparum [16] = assay: Antiparasitic activity against Plasmodium falciparum 3D7 assessed as parasitic reduction ratio at 10 times EC50 pretreated for 120 hrs followed by compound removal and replacement of media without compound measured after 28 days by cell killing assay; assay type: functional
[17] = Volume of distribution at steady state in overnight-fasted male Sprague-Dawley rat at 3 mg/kg, po or 1 mg/kg, iv measured upto 72 hrs by LCMS analysis; assay type: ADME, organism-based; conditions: in vivo
[18] = Partition coefficient, log D of compound at pH 7.4 measured after 24 hrs by LCMS analysis; assay type: physicochemical; conditions: octanol/water, pH 7.4, 24 h
[19] = Protein binding in human hepatocytes; assay type: ADME, cell-based, Hepatocyte; conditions: read-out: PB (converted)
[20] = Metabolic stability in human hepatocytes assessed as intrinsic clearance at 0.5 uM measured per 1.5 million cells incubated for 240 mins by tandem quadrupole-Time of Flight MS; assay type: ADME, cell-based, Hepatocyte; conditions: 4 h
[21] = Metabolic stability in Sprague-Dawley rat hepatocytes assessed as intrinsic clearance at 0.5 uM measured per 0.5 million cells incubated for 240 mins by tandem quadrupole-Time of Flight MS; assay type: ADME, cell-based, Hepatocyte; conditions: 4 h
[22] = Ratio of drug concentration in Sprague-Dawley rat brain to plasma at 1 uM measured for 5 to 60 mins by LCMS analysis; assay type: ADME, cell-free; conditions: time 5-60 min
[23] = Cmax in overnight-fasted male Sprague-Dawley rat at 3 mg/kg, po or 1 mg/kg, iv measured upto 72 hrs by LCMS analysis; assay type: ADME, organism-based; conditions: in vivo

With `CCOC(=O)c1nn(C)c(Cc2ccc(C(F)(F)F)nc2)c1C` the IC50 [1] was 360 nM, the IC50 [2] was > 100000 nM and the EC50 (Plasmodium falciparum [3]) was 190 nM. The Ratio IC50 [4] was 4.
In the case of `CC[C@@](O)(c1cnc(C(F)(F)F)c(Cl)c1)c1c2cnn(C3CC3)c(=O)c2nn1C`, the IC50 [2] is reported as > 30000 nM, the EC50 (Plasmodium falciparum [3]) is reported as 3 nM and the solubility kinetic at 0.5 h [5] is reported as 25 µM (≈ 10.7 µg/mL). The “intrinsic clearance (CLint)” value [6] was < 3 µL/min/mg, the CC50 [7] was > 20000 nM and the CC50 [8] was > 20000 nM. For the same molecule, the EC50 (Plasmodium falciparum [9]) was 3800 nM, the PPB [10] was 78.2% and the PPB [11] was 84.9%. For the same molecule, the fraction unbound (Albumin) was 0.709, the F [12] was 80% and the Fa at 72 h [13] was 81%. The dose excreted [14] was < 1%.
In the case of `CCn1ccc2c([C@@](O)(CC)c3ccc(C(F)(F)F)nc3)n(C)nc2c1=O`, the EC50 (Plasmodium falciparum [3]) is reported as 2 nM, the solubility kinetic at 0.5 h [5] is reported as 40 µM (≈ 15.2 µg/mL) and the “intrinsic clearance (CLint)” value [6] is reported as 3.6 µL/min/mg. The PPB [11] was 75.4%, the fraction unbound (Albumin) was 0.821 and the t1/2 [15] was 3.4 h.
In the case of `CCc1nc(N)nc(N)c1-c1ccc(Cl)cc1` [PYRIMETHAMINE], the “log(activity)” value (Plasmodium falciparum [16]) is reported as 3.5.
For `CCn1cc(C)c2c([C@H](O)c3ccc(C(F)(F)F)nc3)n(C)nc2c1=O`, the IC50 [1] was 74 nM, the IC50 [2] was > 100000 nM and the EC50 (Plasmodium falciparum [3]) was 22 nM. For the same molecule, the solubility kinetic at 0.5 h [5] was 160 µM (≈ 58.6 µg/mL), the “intrinsic clearance (CLint)” value [6] was < 3 µL/min/mg and the Vdss [17] was 2.76 L/kg.
For `Cn1nc2c(=O)n(C3CC3)ccc2c1[C@](O)(c1ccc(C(F)(F)F)nc1)C1CC1`, the IC50 [2] was > 30000 nM, the EC50 (Plasmodium falciparum [3]) was 7 nM and the solubility kinetic at 0.5 h [5] was 20 µM (≈ 8.09 µg/mL). The “intrinsic clearance (CLint)” value [6] was < 3 µL/min/mg and the Fa at 72 h [13] was 40%.
For `CC[C@@](O)(c1cnc(C(F)(F)F)c(Cl)c1)c1c2ccn(C3CC3)c(=O)c2nn1C`, the EC50 (Plasmodium falciparum [3]) was 1 nM, the solubility kinetic at 0.5 h [5] was 40 µM (≈ 17.1 µg/mL) and the “intrinsic clearance (CLint)” value [6] was < 3 µL/min/mg. It also gave a logD [18] of 2.4, a PPB [10] of 94% and a PPB [11] of 89.4%. The fraction unbound (Albumin) was 0.511, the fraction unbound [19] was 0.676 and the Vdss [17] was 1.22 L/kg. For the same molecule, the Fa at 72 h [13] was 67%.
Molecule `Cc1nn(C2CC2)c(=O)c2nn(C)c(Cc3ccc(C(F)(F)F)c(C#N)c3)c12` has a fraction unbound (Albumin) of 0.499, a t1/2 [15] of 31 h and a Fa at 72 h [13] of 15%.
With `CCn1cc(C2CC2)c2c(Cc3ccc(C(F)(F)F)nc3)n(C)nc2c1=O` the IC50 [2] was > 100000 nM, the EC50 (Plasmodium falciparum [3]) was 22 nM and the solubility kinetic at 0.5 h [5] was 130 µM (≈ 48.9 µg/mL). The “intrinsic clearance (CLint)” value [6] was 9 µL/min/mg, the fraction unbound (Albumin) was 0.5 and the CLH [20] was 1.2 µL/min. For the same molecule, the CLH [21] was 2.3 µL/min, the BPR [22] was 0.65 and the Cmax [23] was 4.4 µM. It also gave an F [12] of 65% and a Fa at 72 h [13] of 71%.

Reference: ChEMBL document CHEMBL6087456 (J Med Chem, 2025)
